In general, half-life refers to the time in which the quantity being followed falls by half. For orientation: IC50 means the point on the concentration scale where inhibition reaches its midpoint. As a reminder, the DC50 is the concentration giving 50% degradation.

Data set [1] has as its system A549. Briefly: Induction of apoptosis in human A549 cells assessed as apoptotic rate at 5 uM incubated for 24 hrs by Annexin V-FITC staining based flow cytometry relative to control. Format: functional. Background: Flow cytometry measures light scatter and fluorescence of single cells or particles in a stream.
The nature of data set [2]: Metabolic stability in mouse liver microsomes assessed as half life. Format: ADME, Microsome.
Data set [3] is described as follows: Antiproliferative activity against human Triple-negative breast cancer cell. It counts as functional, cell-based. The settings on record: Breast carcinoma cell.
Data set [4] concerns A549. Briefly: Anticancer activity against human A549 cells assessed as reduction in cell growth incubated for 72 hrs by CCK-8 assay. Format: functional, cell-based. Particulars: A549, 72 h. Background: Tetrazolium dyes change colour on reduction, which living cells bring about.
Data set [5] can be described thus: Terminal half life in Sprague-Dawley rat at 2 mg/kg, iv by LC-MS/MS analysis. Format: ADME, organism-based. The settings on record: in vivo.
Data set [6] deals with A549. Kind of data set: Antitumor activity against human A549 cells xenografted in BALB/c nude mouse assessed as tumor growth inhibition at 30 mg/kg, ip administered twice daily for 21 days relative to control. It counts as functional. The settings on record: A549, 504 h, time 21 day, read-out: TGI. Background: A xenograft is tissue or cells of one species grown in another, often human tumour cells in immunodeficient mice.

A further data set has as its system MOLM-13. Kind of data set: Antiproliferative activity against human MOLM-13 assessed as reduction in cell viability. It counts as functional, cell-based.
Data set [7] in a line: Antiproliferative activity against human derived Acute myeloid leukemic cells assessed as reduction in cell viability incubated for 48 hr by CellTiter-Glo assay. Particulars: Leukemia cell. It counts as functional, cell-based.
Data set [8] addresses E3 ubiquitin-protein ligase Mdm2 (Homo sapiens, UniProt Q00987). Kind of data set: Homo-PROTAC activity at MDM2 in human A549 cells assessed as self ubiquitination mediated protein degradation by Western Blot analysis. Format: cell-based.

E3 ubiquitin-protein ligase Mdm2, sequence (Q00987 whole entry): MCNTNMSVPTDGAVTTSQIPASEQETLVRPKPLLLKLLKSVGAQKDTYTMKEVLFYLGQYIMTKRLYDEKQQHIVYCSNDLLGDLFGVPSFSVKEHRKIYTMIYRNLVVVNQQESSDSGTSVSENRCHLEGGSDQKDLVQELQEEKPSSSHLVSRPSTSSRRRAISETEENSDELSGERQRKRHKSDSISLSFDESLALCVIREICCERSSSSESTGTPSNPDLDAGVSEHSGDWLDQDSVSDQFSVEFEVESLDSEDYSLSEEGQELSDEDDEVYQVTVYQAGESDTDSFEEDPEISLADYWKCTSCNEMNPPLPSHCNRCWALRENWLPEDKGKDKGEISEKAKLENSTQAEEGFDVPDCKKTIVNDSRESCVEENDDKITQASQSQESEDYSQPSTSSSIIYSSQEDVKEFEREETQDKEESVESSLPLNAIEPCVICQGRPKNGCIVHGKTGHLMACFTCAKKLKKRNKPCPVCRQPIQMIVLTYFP

In the case of `C[C@H]1[C@H](C)CC[C@]2(C(=O)NCCOCCOCCOCCNc3cccc4c3C(=O)N(C3CCC(=O)NC3=O)C4=O)CC[C@]3(C)C(=CC[C@@H]4[C@@]5(C)CC[C@H](O)C(C)(C)[C@@H]5CC[C@]43C)[C@H]12` (some centres undefined), in the data set with A549 [1], the Activity was found to be 26.74%.
Regarding `CCOc1cc(C(C)(C)C)ccc1C1=N[C@@](C)(c2ccc(Cl)cc2)[C@@](C)(c2ccc(Cl)cc2)N1C(=O)N1CCN(CC(=O)NCCOCCOCCOCC(=O)N[C@H](C(=O)N2C[C@H](O)C[C@H]2C(=O)NCc2ccc(-c3scnc3C)cc2)C(C)(C)C)CC1`, the half-life in data set [2] was found to be 25.9 min. This molecule also yielded an IC50 in data set [3] of 4000 nM.
Regarding `CCOc1cc(C(C)(C)C)ccc1C1=N[C@@H](c2ccc(Cl)cc2)[C@@H](c2ccc(Cl)cc2)N1C(=O)N1CCN(CC(=O)NCCOCCOCCOCCNC(=O)CN2CCN(C(=O)N3C(c4ccc(C(C)(C)C)cc4OCC)=N[C@@H](c4ccc(Cl)cc4)[C@H]3c3ccc(Cl)cc3)CC2=O)C(=O)C1`, the IC50 in the data set on A549 [4] amounted to 580 nM. The “beta t1/2” value in data set [5] came out at 576 min. The inhibition in vivo at 30 mg/kg in the data set with A549 [6] came out at 52.4%.
In the case of `Cc1ncsc1-c1ccc(CNC(=O)[C@@H]2C[C@@H](O)CN2C(=O)[C@@H](NC(=O)CCCCCCCCC(=O)N2CCN(S(=O)(=O)C[C@@H](N3C(=O)[C@@](C)(CC(=O)O)C[C@H](c4cccc(Cl)c4)[C@H]3c3ccc(Cl)cc3)C(C)(C)C)CC2)C(C)(C)C)cc1`, the figures for the IC50 (in the data set with MOLM-13; in data set [7]) were 50 nM and 40 nM, respectively.
`CCOc1cc(C(C)(C)C)ccc1C1=NC(c2ccc(Cl)cc2)C(c2ccc(Cl)cc2)N1C(=O)N1CCN(CC(=O)NCCOCCOCCOCCNC(=O)CN2CCN(C(=O)N3C(c4ccc(C(C)(C)C)cc4OCC)=NC(c4ccc(Cl)cc4)C3c3ccc(Cl)cc3)CC2=O)C(=O)C1` (racemic): the DC50 in data set [8] is 1010 nM.
